In paper PMC11265914, “Unravelling nicotinic receptor and ligand features underlying neonicotinoid knockdown actions on the malaria vector mosquito Anopheles gambiae” (Open Biology, 2024):

Biological target: T1, Ls-AChBP (Lymnaea stagnalis, UniProt P58154, Q74R)
T1 construct: over-expressed in Pichia pastoris, deglycosylated, purified; homo-pentamer
Assay: X-ray crystal structure of the complex
Type: binding
Conditions: cocrystallized with 1 mM dinotefuran, PEG4000, 0.2 M sodium citrate pH 5.4, 20 °C; all five orthosteric sites

## CNC(=N[N+](=O)[O-])NC[C@@H]1CCOC1 [dinotefuran]
  X-ray crystal structure of the complex: Dinotefuran bound to all five orthosteric sites of the protein
